Source: US20240174690A1, “ANNULATED 2-AMINO-3-CYANO THIOPHENES AND DERIVATIVES FOR THE TREATMENT OF CANCER” (BOEHRINGER INGELHEIM INTERNATIONAL GMBH, priority 2021, published 2024)
Converted amounts (≈) assume the structure as drawn. Like-named read-outs stand apart in the source and are kept apart here.

Columns and labels:
LOVO cells = assay: LOVO CTG proliferation assay (120 h) (CRC, G13D); format: cell-based; settings: CTG 120 h
Outline: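 LOVO cells, 1000 per well in DMEM + 10% FCS, were plated overnight and then dosed with compound from DMSO stock. After 120 h at 37 °C, viability was read by CellTiter-Glo luminescence as a percentage of DMSO controls. IC50 was derived by four-parameter non-linear regression.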

AsPC-1 cells = assay: AsPC-1 CTG proliferation assay (120 h) (pancreatic cancer, G12D); format: cell-based
Outline: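 AsPC-1 cells (KRAS G12D), 2000/well in RPMI with 10% FCS, seeded overnight, then treated with compound for 120 h at 37 °C. Viability by CellTiter-Glo luminescence as percent of DMSO control. IC50 from a four-parameter non-linear fit.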

[1] = tested on: KRAS G12V-dependent Ba/F3 cells; assay: Ba/F3 proliferation assay, KRAS G12V; format: cell-based; settings: AlamarBlue;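 also: proliferation IC50 in KRAS G12V-dependent Ba/F3 cells read by AlamarBlue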
Outline: (§1)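 Ba/F3 cells retrovirally transduced with KRAS G12 mutants, puromycin-selected and grown without IL-3, so proliferation depends on the mutant KRAS. Compounds tested in technical duplicates; viability read by AlamarBlue fluorescence, with curve fitting for potency.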

[2] = tested on: KRAS G12C-dependent Ba/F3 cells; assay: Ba/F3 proliferation assay, KRAS G12C; format: cell-based; settings: AlamarBlue
Outline: as §1

[3] = Solubility measurement (DMSO solution method), McIlvaine buffer pH 4.5 or 6.8; format: physicochemical; settings: DMSO stock diluted to 250 μM, 24 h shaking at ambient temperature; for solubility at 24 h: aqueous buffer, kinetic from dmso stock
Outline: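 DMSO stock diluted into McIlvaine buffer, pH 4.5 or 6.8, to 250 µM final, shaken 24 h at ambient temperature. Precipitate removed by filtration; filtrate quantified by LC-UV against a fully dissolved reference in acetonitrile/water 1:1.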

[4] = Plasma protein binding assay (PPB), equilibrium dialysis, 10% FCS in PBS; format: in vitro ADME; settings: for fraction unbound: bovine, read-out: PPB 10% FCS (% fu)
Outline: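 Equilibrium dialysis (5-10 kg/mol cut-off membrane) of 1-10 μmol/L test compound in 10% FCS/PBS against PBS with or without dextran, 3-5 h at 37° C. Compound in each chamber quantified by LC-MS after protein precipitation; fu calculated from Cserum and Cbuffer.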

SAS cells = assay: SAS CTG proliferation assay (120 h) (HNSCC, wt amplified); format: cell-based
Outline: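 SAS cells plated at 300 per well in DMEM:F12 with 10% FCS and left overnight, then given compounds acoustically. After 120 h exposure, viability read by CellTiter-Glo as percent of DMSO control. IC50 from four-parameter non-linear regression.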

[5] = McIlvaine buffer pH 4.5, read-out: solubility pH 4.5
[6] = McIlvaine buffer pH 6.8, read-out: solubility pH 6.8

Row | Structure (SMILES) | IC50 (LOVO cells; Homo sapiens) [µM] | IC50 (AsPC-1 cells; Homo sapiens, ASPC1) [µM] | IC50 ([1]; Mus musculus, BaF3, 72 h) [µM] | IC50 ([2]; Mus musculus, BaF3, 72 h) [µM] | solubility at 24 h [3, 5] [µg/mL] | solubility at 24 h [3, 6] [µg/mL] | fraction unbound [4] | IC50 (SAS cells) [µM] | IC50 (LOVO cells) [µM] | IC50 (AsPC-1 cells) [µM] | IC50 ([1]; 72 h) [µM] | IC50 ([2]; 72 h) [µM] | solubility pH 4.5 ([3]; McIlvaine buffer pH 4.5) [μg/ml] | solubility pH 6.8 ([3]; McIlvaine buffer pH 6.8) [μg/ml] | PPB 10% FCS (% fu) ([4]; fraction unbound)
1 | C[C@H](Oc1cc(Cl)nc(-c2onc3c2CCC[C@@]32CCCc3sc(N)c(C#N)c32)n1)[C@@H]1CCCN1C [I-1] | 1.27 | 5.9 | 0.043 | 0.077 | > 125 | 101 (≈ 192 µM) | 0.53 | 2.88 |  |  |  |  |  |  | 
2 | C[C@H](Oc1nc(-c2onc3c2CCC[C@@]32CCCc3sc(N)c(C#N)c32)cc(N2CCNC3(CC3)C2)n1)[C@@H]1CCCN1C [I-2] |  |  |  | 0.493 | > 142 | > 131 | 0.69 |  |  |  |  |  |  |  | 
3 | C[C@H](Oc1cc(N2CCNC3(CCC3)C2)nc(-c2onc3c2CCC[C@@]32CCCc3sc(N)c(C#N)c32)n1)[C@@H]1CCCN1C [I-3] | 2.16 | 0.273 | 0.351 | 0.345 | > 173 | > 176 | 0.68 | 4.89 |  |  |  |  |  |  | 
4 | C[C@H](Oc1cc(N2CCNC3(COC3)C2)nc(-c2onc3c2CCC[C@@]32CCCc3sc(N)c(C#N)c32)n1)[C@@H]1CCCN1C [I-4] | 0.205 | 0.064 | 0.134 | 0.069 | > 148 | > 140 |  | 0.395 |  |  |  |  |  |  | 
5 | C[C@H](Oc1cc(-n2ccnc2)nc(-c2onc3c2CCC[C@@]32CCCc3sc(N)c(C#N)c32)n1)[C@@H]1CCCN1C [I-20] | 0.298 | 5.42 | 0.01 | 0.014 | > 157 | 98 (≈ 176 µM) | 0.58 | 0.035 |  |  |  |  |  |  | 
6 | C[C@H](Oc1cc(-c2ccn(C)n2)nc(-c2onc3c2CCC[C@@]32CCCc3sc(N)c(C#N)c32)n1)[C@@H]1CCCN1C [I-21] |  |  |  |  |  |  |  | 0.04 | 0.128 | 2.98 | 0.006 | 0.006 | 110 | 33 | 83
7 | C[C@H](Oc1cc([C@@H]2CCOC2)nc(-c2onc3c2CCC[C@@]32CCCc3sc(N)c(C#N)c32)n1)[C@@H]1CCCN1C [I-22] | 0.031 | 0.65 | 0.009 | 0.009 | 112 (≈ 200 µM) | 104 (≈ 185 µM) | 0.38 | 0.033 |  |  |  |  |  |  | 
8 | C[C@H](Oc1cc(-c2ccn(CC(C)(C)O)n2)nc(-c2onc3c2CCC[C@@]32CCCc3sc(N)c(C#N)c32)n1)[C@@H]1CCCN1C [I-26] | 0.281 | 2.24 | 0.013 | 0.017 |  |  | 0.23 | 0.089 |  |  |  |  |  |  | 
9 | C[C@H](O)Cn1ccc(-c2cc(O[C@@H](C)[C@@H]3CCCN3C)nc(-c3onc4c3CCC[C@@]43CCCc4sc(N)c(C#N)c43)n2)n1 [I-31] |  |  | 0.009 | 0.009 | > 128 | 118 (≈ 192 µM) | 0.53 | 0.057 |  |  |  |  |  |  | 
10 | C[C@H](Oc1nc(-c2onc3c2CCC[C@@]32CCCc3sc(N)c(C#N)c32)cc(N2CCN(C)C3(CC3)C2)n1)[C@@H]1CCCN1C [I-40] |  |  |  | 0.913 |  |  | 0.51 |  |  |  |  |  |  |  | 
11 | C[C@H](Oc1cc(N2CCN(C)C3(CC3)C2)nc(-c2onc3c2CCC[C@@]32CCCc3sc(N)c(C#N)c32)n1)[C@@H]1CCCN1C [I-41] | 0.304 | 0.297 | 0.445 | 0.233 | > 137 | 118 (≈ 192 µM) |  | 4.19 |  |  |  |  |  |  | 
12 | C[C@H]1CN(C)CCCN1c1nc(-c2onc3c2CCC[C@@]32CCCc3sc(N)c(C#N)c32)cc(N2CCN(C)C3(CC3)C2)n1 [I-42] |  |  |  | 0.867 | > 141 | 99 (≈ 161 µM) |  |  |  |  |  |  |  |  | 
13 | C[C@H](Oc1cc(N2CCN(C)C3(CCC3)C2)nc(-c2onc3c2CCC[C@@]32CCCc3sc(N)c(C#N)c32)n1)[C@@H]1CCCN1C [I-44] | 0.925 | 0.98 | 1.05 | 0.509 |  |  | 0.22 | 1.2 |  |  |  |  |  |  | 
14 | C[C@H](Oc1cc(-n2ccc(C(=O)N[C@H]3CCOC3)n2)nc(-c2onc3c2CCC[C@@]32CCCc3sc(N)c(C#N)c32)n1)[C@@H]1CCCN1C [I-57] | 0.008 | 0.278 | 0.001 | 0.001 |  |  |  |  |  |  |  |  |  |  | 
15 | C[C@H]1CN(C)CCCN1c1cc(N2CCN(C)CC2)nc(-c2noc3c2CCC[C@@]32CCCc3sc(N)c(C#N)c32)n1 [II-30] | > 25 | 2.39 |  | 1.05 | > 136 | > 125 | 0.64 | 10.6 |  |  |  |  |  |  | 
16 | C[C@H](Oc1cc(N2C[C@H]3CN(C)C[C@H]3C2)nc(-c2noc3c2CCC[C@@]32CCCc3sc(N)c(C#N)c32)n1)[C@@H]1CCCN1C [II-33] | 0.737 | 1.41 | 0.657 | 0.527 |  |  | 0.68 | 0.597 |  |  |  |  |  |  | 
17 | CN[C@H]1CCN(c2cc(O[C@@H](C)[C@@H]3CCCN3C)nc(-c3noc4c3CCC[C@@]43CCCc4sc(N)c(C#N)c43)n2)C1 [II-35] | 1.69 | 0.713 | 1.68 | 1.29 |  |  | 0.77 | 4.73 |  |  |  |  |  |  | 
18 | C[C@H](Oc1cc([C@H]2CCN(C)C2)nc(-c2noc3c2CCC[C@@]32CCCc3sc(N)c(C#N)c32)n1)[C@@H]1CCCN1C [II-38] | 0.074 | 0.213 | 0.056 | 0.066 |  |  | 0.54 | 0.047 |  |  |  |  |  |  | 
19 | C[C@H](Oc1cc(N2CCN(C)CC2)nc(-c2noc3c2CCC[C@@]32CCCc3sc(N)c(C#N)c32)n1)[C@@H]1CCCN1[C@@H]1CCOC1 [II-39] | 2.92 | 1.76 |  | 0.193 |  |  | 0.17 | 2.94 |  |  |  |  |  |  | 
20 | C[C@H](Oc1nc(-c2noc3c2CCC[C@@]32CCCc3sc(N)c(C#N)c32)cc(N2C[C@H](C)N[C@@H](C)C2)n1)[C@@H]1CCCN1C [II-46] | 1.22 | 2.74 |  | 0.05 | > 150 | > 150 |  | 0.399 |  |  |  |  |  |  | 
21 | [2H]C([2H])([2H])N1C[C@H](F)C[C@H]1[C@H](C)Oc1cc(N2CCNC3(CC3)C2)nc(-c2noc3c2CCC[C@@]32CCCc3sc(N)c(C#N)c32)n1 [II-208] | 0.334 | 0.015 | 0.166 | 0.112 |  |  | 0.15 | 0.718 |  |  |  |  |  |  | 
